Assay results reported in patent US7846473B2, “Irinotecan preparation” (Terumo Kabushiki Kaisha, priority 2004, dated 2010).

Columns and labels:
Assay type in all cases: in vivo
[1] = Retentivity in blood; settings: female, plasma, iv; BALB/c mouse, 10 mg/kg i.v. tail, elapsed time 1 hr; read-out: Concentration in plasma of irinotecan hydrochloride
[2] = system: human prostatic cancer cells (PC-3); test: Antitumor effect, human prostatic cancer PC-3 implanted in mouse; settings: PC-3 in BALB/c nude mouse; for Inhibition rate (%) / Tumor weight (g, mean ± S.D.): Day 22
From the text: (§1) 2.5×10^6 cells/mouse of human prostatic cancer cells (PC-3) were implanted subcutaneously in left inguinal region of the mouse (BALB/c nude, male, 6 weeks old, Charles River Japan, Inc.). After implanting tumors, a presumptive tumor volume calculated by ½·ab^2 (a represents a longitudinal diameter of a tumor and b represents a short axis diameter thereof). […] There were mice without injection of either agent as a control group.
A presumptive tumor volume and a body weight of a mouse were measured at Days 1, 5, 9, 12, 16, and 22.
After extracting tumors and measuring a weight thereof at Day 22, further, an inhibition rate of tumor growth I.R. (%) was calculated by the following formula. I.R. %=(1−average tumor weight in a treatment group/average tumor weight in a control group)×100

[3] = Pharmacokinetics in cynomolgus monkey
Protocol: Providing 50 μL of blood plasma with 550 μL of an internal standard solution B (a methanol solution of internal standard substances) and employing centrifugal force, the supernatant was diluted with methanol 100-fold as a sample for the total CPT-11 concentration measurement. Meanwhile, Providing 50 μL of each blood plasma with 200 μL of an internal standard solution A (0.147 mol/L H3PO4 solution of internal standard substances), 200 μL thereof was subjected to a centrifugal separation (100,000×g, for 30 min, 10° C.). 100 μL in upper layer were separated and were employed solid-phase extraction, to obtain the eluent as samples for free CPT-11 (i.e., CPT-11 released from liposome, hereinafter referred as “liposome-released CPT-11”) concentration measurement, SN-38 concentration measurement, and SN-38G (SN-38 10-O-gluclonide) concentration measurement. The samples obtained were measured each concentration thereof with LC/MS/MS. FIGS. 8 to 11 show the results.

[4] = system: neutrophils and lymphocytes; test: Hemotoxicity in rat; settings: i.v. tail vein
Protocol: Collecting blood of 0.4 mL from a cervical vein of the rat before and after injection; and after 2, 4, 6, 13, 20, and 27 days (for 4 weeks); the number of neutrophils and lymphocytes was measured with automated hematology analyzer (Sysmex XT-2000i, Sysmex). FIGS. 12 and 13 show the results.

[5] = system: human colon cancer cells (HCT116); test: Antitumor effect, human colon cancer HCT116 implanted in mouse; settings: HCT116 in BALB/c nude mouse; for Inhibition rate (%) / Tumor weight (g, mean ± S.D.): 21 days after injection
Protocol: as §1, with “2×10^6” for “2.5×10^6”, “colon” for “prostatic”, “(HCT116)” for “(PC-3)”, “♂,” for “male,”, “volume was” for “volume”, “thereof) achieved to about 90 mm^3 in a day (Day 0).” for “thereof).”
A presumptive tumor volume and a body weight of a mouse were measured after 5, 8, 12, 16, and 21 days from the injection. Extracting tumors 21 days after the injection and measuring a weight thereof, further, an inhibition rate of tumor growth I.R. (%) was calculated by the formula as shown in Test Example 6.

[6] = system: Human colon cancer cells (HT-29); test: Antitumor effect, human colon cancer HT-29 transplanted in mouse; settings: HT-29 in BALB/c nude mouse; for Inhibition rate (%) / Tumor weight (g, mean ± S.D.): 21 days after injection
Protocol: Human colon cancer cells (HT-29) with 2 to 3 mm square were transplanted subcutaneously in an inguinal region of a mouse (BALB/c nude, male, 6 weeks old, CLEA Japan, Inc.) with a needle for transplantation. […] Mice without injection of either agent were employed as a control group.
The estimated volume of tumors and a body weight of the mouse were calculated at 4, 8, 12, 17, 21 days after a first injection. The tumors were also removed 21 days after the injection and the weight of the tumors were measured, to thereby calculate a tumor proliferation inhibition rate, I.R. (%) by the formula as shown in Test Example 6.

[7] = Pharmacokinetics due to single administration in Meth A tumor-bearing mouse (plasma and tumor); settings: Meth A-bearing BALB/c mouse, 10 mg/kg i.v.
[8] = system: Mouse fibrosarcoma (Meth A); test: Antitumor effect due to administration of a drug three times, Meth A; settings: Meth A in BALB/c mouse; for Inhibition rate (%) / Tumor weight (g, mean ± S.D.): 21 days from transplantation
Protocol: Mouse fibrosarcoma (Meth A), 2.5×10^5 cells/mouse were transplanted subcutaneously in an inguinal region of a mouse (BALB/c, female, 7 weeks old, CLEA Japan, Inc.). […] Mice without injection of either agent were employed as a control group.
The tumors were also removed after 21 days from the transplantation and weight of the tumors was measured, to thereby calculate each tumor proliferation inhibition rate, I.R. (%) by the formula as shown in Test Example 6.

[9] = system: Mouse fibrosarcoma (Meth A); test: Antitumor effect due to administration of a drug once or twice, Meth A; settings: Meth A in BALB/c mouse; for Inhibition rate (%) / Tumor weight (g, mean ± S.D.): 21 days from transplantation
Protocol: Mouse fibrosarcoma (Meth A), 2.5×10^5 cells/mouse were transplanted subcutaneously in an inguinal region of a mouse (BALB/c, female, 7 weeks old, CLEA Japan, Inc.). […] Mice without injection of any agent were employed as a control group.
The tumors were also removed after 21 days from the transplantation and weight of the tumors was measured, to thereby calculate tumor proliferation inhibition rate, I.R. (%) by the formula as shown in Test Example 6.

[10] = system: Human lung cancer cells (QG56); test: Antitumor effect, human lung cancer QG56 transplanted in mouse; settings: QG56 in BALB/c nude mouse; for Inhibition rate (%) / Tumor weight (g, mean ± S.D.): 21 days after first injection
Protocol: Human lung cancer cells (QG56) with 2 to 3 mm square were transplanted subcutaneously in an inguinal region of a mouse (BALB/c nude, male, 6 weeks old, CLEA Japan, Inc.) with a needle for transplantation. […] Mice without injection of either agent were employed as a control group.
The estimated volume of each tumor and a body weight of the mouse were calculated 4, 8, 12, 16, and 21 days after the first injection. The tumors were also removed 21 days after the first injection and a weight of the tumors was measured, to thereby calculate each tumor proliferation inhibition rate, I.R. (%) by the formula as shown in Test Example 6. The results are shown in Table 16, FIG. 28, and FIG. 29.

[11] = 50 mg/kg i.v., treatment on days 7, 9, 11
[12] = 50 mg/kg i.v., treatment on days 7, 11, 15
[13] = 100 mg/kg i.v., treatment on days 7, 9, 11
[14] = 100 mg/kg i.v., treatment on days 7, 11, 15
[15] = 12.5 mg/kg i.v., treatment on day 7
[16] = 12.5 mg/kg i.v., treatment on days 7, 11
[17] = 25 mg/kg i.v., treatment on day 7
[18] = 25 mg/kg i.v., treatment on day 11
[19] = 25 mg/kg i.v., treatment on days 7, 11
[20] = 50 mg/kg i.v., treatment on day 7
[21] = 50 mg/kg i.v., treatment on day 11
[22] = 50 mg/kg i.v., treatment on days 7, 11

concentration at 1 h [1]: 390 ng/mL
time of highest SN-38 concentration in blood plasma ([3]; 10 mg/kg i.v.): immediately after injection
time of highest free (liposome-released) CPT-11 concentration in blood plasma ([3]; 10 mg/kg i.v.): immediately after injection
concentration at 1 h ([3]; male, plasma, iv, 10 mg/kg i.v. over 4 min, until 1 hour, lower limit of quantification, read-out: total CPT-11 concentration in blood plasma): < 1000 ng/mL
time of maximum concentration of irinotecan hydrochloride in the tumor tissue [7]: 0.5 h
SMILES: CCc1c2c(nc3ccc(OC(=O)N4CCC(N5CCCCC5)CC4)cc13)-c1cc3c(c(=O)n1C2)COC(=O)[C@]3(O)CC [(+)-(4S)-4,11-diethyl-4-hydroxy-9-[(4-piperidino-piperidino)carbonyloxy]-1H-pyrano[3′,4′:6,7]indolizino[1,2-b]quinolin-3,14(4H,12H)-dione]
tumor growth compared to the control group [2]: significant suppressive effect of tumor growth
Inhibition rate (%) ([2]; 25 mg/kg i.v. days 1, 5, 9): 49.0%
Tumor weight (g, mean ± S.D.) ([2]; 25 mg/kg i.v. days 1, 5, 9): 0.64 ± 0.25 g
Inhibition rate (%) ([2]; 50 mg/kg i.v. days 1, 5, 9): 48.0%
Tumor weight (g, mean ± S.D.) ([2]; 50 mg/kg i.v. days 1, 5, 9): 0.66 ± 0.13 g
Inhibition rate (%) ([2]; 100 mg/kg i.v. days 1, 5, 9): 62.3%
Tumor weight (g, mean ± S.D.) ([2]; 100 mg/kg i.v. days 1, 5, 9): 0.48 ± 0.20 g
influence on body weight of the mouse ([2]; 25-100 mg/kg i.v. days 1, 5, 9): did not influence the body weight of the mouse
number of lymphocytes [4]: on a decline immediately after injection albeit only slightly
tumor growth compared to the control group [5]: significant suppressive effect of tumor growth
Inhibition rate (%) ([5]; 18.75 mg/kg i.v. Days 1, 5, 9): 39.0%
Tumor weight (g, mean ± S.D.) ([5]; 18.75 mg/kg i.v. Days 1, 5, 9): 0.76 ± 0.06 g
Inhibition rate (%) ([5]; 37.5 mg/kg i.v. Days 1, 5, 9): 43.4%
Tumor weight (g, mean ± S.D.) ([5]; 37.5 mg/kg i.v. Days 1, 5, 9): 0.71 ± 0.08 g
Inhibition rate (%) ([5]; 75 mg/kg i.v. Days 1, 5, 9): 57.4%
Tumor weight (g, mean ± S.D.) ([5]; 75 mg/kg i.v. Days 1, 5, 9): 0.53 ± 0.14 g
influence on body weight of the mouse ([5]; 18.75-75 mg/kg i.v. Days 1, 5, 9): did not influence the body weight of the mouse
tumor proliferation compared with the control group [6]: strong tumor proliferation inhibitory effect
Inhibition rate (%) ([6]; 25 mg/kg i.v. days 1, 5, 9): 38.2%
Tumor weight (g, mean ± S.D.) ([6]; 25 mg/kg i.v. days 1, 5, 9): 0.36 ± 0.41 g
Inhibition rate (%) ([6]; 50 mg/kg i.v. days 1, 5, 9): 24.9%
Tumor weight (g, mean ± S.D.) ([6]; 50 mg/kg i.v. days 1, 5, 9): 0.44 ± 0.36 g
Inhibition rate (%) ([6]; 100 mg/kg i.v. days 1, 5, 9): 44.0%
Tumor weight (g, mean ± S.D.) ([6]; 100 mg/kg i.v. days 1, 5, 9): 0.33 ± 0.32 g
effect on body weight of the mouse ([6]; 25-100 mg/kg i.v. days 1, 5, 9): didn't affect the body weight of the mouse
Inhibition rate (%) [8, 11]: 26.9%
Tumor weight (g, mean ± S.D.) [8, 11]: 1.47 ± 0.18 g
Inhibition rate (%) [8, 12]: 1.0%
Tumor weight (g, mean ± S.D.) [8, 12]: 1.99 ± 0.47 g
Inhibition rate (%) [8, 13]: 86.0%
Tumor weight (g, mean ± S.D.) [8, 13]: 0.28 ± 0.42 g
Inhibition rate (%) [8, 14]: 37.4%
Tumor weight (g, mean ± S.D.) [8, 14]: 1.26 ± 0.49 g
effect on body weight of the mouse ([8]; 50-100 mg/kg i.v. three times): didn't affect the body weight of the mouse
tumor proliferation compared to the control group ([8]; three administrations): significant tumor proliferation inhibitory effect
Inhibition rate (%) [9, 15]: 20.2%
Tumor weight (g, mean ± S.D.) [9, 15]: 2.82 ± 0.51 g
Inhibition rate (%) [9, 16]: 29.4%
Tumor weight (g, mean ± S.D.) [9, 16]: 2.49 ± 0.29 g
Inhibition rate (%) [9, 17]: 26.0%
Tumor weight (g, mean ± S.D.) [9, 17]: 2.61 ± 0.40 g
Inhibition rate (%) [9, 18]: 32.1%
Tumor weight (g, mean ± S.D.) [9, 18]: 2.40 ± 0.74 g
Inhibition rate (%) [9, 19]: 34.1%
Tumor weight (g, mean ± S.D.) [9, 19]: 2.33 ± 0.62 g
Inhibition rate (%) [9, 20]: 33.7%
Tumor weight (g, mean ± S.D.) [9, 20]: 2.34 ± 0.17 g
Inhibition rate (%) [9, 21]: 44.0%
Tumor weight (g, mean ± S.D.) [9, 21]: 1.98 ± 0.45 g
Inhibition rate (%) [9, 22]: 41.2%
Tumor weight (g, mean ± S.D.) [9, 22]: 2.08 ± 0.43 g
effect on body weight of the mouse ([9]; 12.5-50 mg/kg i.v. once or twice): didn't affect the body weight of the mouse
tumor proliferation compared to the control group ([9]; one or two administrations): significant tumor proliferation inhibitory effect compared to the control group unless a part of the physiological saline solutions of irinotecan hydrochloride
tumor proliferation compared to the control group [10]: significant tumor proliferation inhibitory effect
Inhibition rate (%) ([10]; 25 mg/kg i.v. days 1, 5, 9): 35.5%
Tumor weight (g, mean ± S.D.) ([10]; 25 mg/kg i.v. days 1, 5, 9): 1.88 ± 0.43 g
Inhibition rate (%) ([10]; 50 mg/kg i.v. days 1, 5, 9): 48.7%
Tumor weight (g, mean ± S.D.) ([10]; 50 mg/kg i.v. days 1, 5, 9): 1.49 ± 0.51 g
Inhibition rate (%) ([10]; 100 mg/kg i.v. days 1, 5, 9): 67.2%
Tumor weight (g, mean ± S.D.) ([10]; 100 mg/kg i.v. days 1, 5, 9): 0.95 ± 0.18 g
effect on body weight of the mouse ([10]; 25-100 mg/kg i.v. days 1, 5, 9): didn't affect the body weight of the mouse
